Patent publication US4755388A, “Liposome-encapsulated 5-fluoropyrimidines and methods for their use” (The Regents of the University of California, priority 1986, dated 1988)
Like-named read-outs stand apart in the source and are kept apart here.

How the values were obtained:
[1] = tested on: L929 murine fibroblasts; test: Growth inhibition by 5-fluoroorotate, L929 murine fibroblasts (48 hours); format: cell-based; conditions: free drug mean of 4 determinations, liposomes from individual growth inhibition curves, read-out: IC50 (concentration of the drug that inhibits cell growth by 50%)
Description: (§1) All phospholipids (Avanti, Birmingham, Ala.) were used without further purification. Cholesterol (Sigma, St. Louis, Mo.) was recrystallized four times with methanol. All lipids were stored under argon in chloroform solution in sealed ampoules until use. Liposomes were prepared by reverse-phase evaporation (Szoka and Papahadjopoulos (1978) Proc. Natl. Acad. Sci. U.S.A. 75:4194-4198), and extrusion (Szoka et al. (1980) Biochem. et Biophys. Acta. 601:559-571). Small liposomes were made by extensive sonication of lipid suspensions. The unencapsulated drug was removed by gel filtration with Sephadex® G75 (Pharmacia). Lipid concentration was measured by phosporous analysis as described by Bartlett (1959) J. Biol. chem. 234:466-468. The encapsulated drug was measured using a molar extinction coefficient of 7100 in 0.1N HCl. A liposome sample was extracted (Bligh et al. (1959) Can. J. Biochem. Physiol. 37:[…]), the upper phase was acidified with HCl, and its absorbance was meausred. L929 murine fibroblasts and CV1-P cells were obtained and grown as previously described by Heath et al. (1983) Proc. Natl. Acad. Sci. U.S.A. 80:1377-1381 and Fraley et al. (1980) J. Biol. Chem. 255:10431-10435, respectively. The IC50 of the liposome preparations was measured by growth inhibition as previously described by Heath et al. (1983) supra. […]

[2] = tested on: CV1-P cells; test: Growth inhibition by 5-fluoroorotate, CV1-P cells (72 hours); format: cell-based; conditions: free drug mean of 3 determinations, liposomes from individual growth inhibition curves, read-out: IC50 (concentration of the drug that inhibits cell growth by 50%)
Description: as §1

[3] = Aqueous solubility; format: physicochemical; conditions: water, read-out: maximum aqueous solubility

| Structure (SMILES) | IC50 ([1]; L929, 48 hours) [nM] | IC50 ([1]; Mus musculus, L929, 48 h) [nM] | IC50 [2] [nM] | solubility [3] [mM] |
| --- | --- | --- | --- | --- |
| O=C(O)c1[nH]c(=O)[nH]c(=O)c1F [Free Drug, 5-fluoroorotate] | 1100 ± 300 | 1000 | 7000 | – |
| O=C([O-])c1[nH]c(=O)[nH]c(=O)c1F.[Na+] [Sodium 5-fluoroorotate] | – | – | – | 15 |
| O=C([O-])c1[nH]c(=O)[nH]c(=O)c1F.[Li+] [lithium salt, lithium 5-fluoroorotate] | – | – | – | ≥ 50 |
